# Assay: Old liquid medium can be removed and replaced with new medium (200 μL) on day 0.Formulating the compound and treating the cells in the experiment of anti virus: the compound was dissolved in DMSO to a concentration of 30 mM, and then the compound solution was diluted with DMSO to a concentration of […], and then eight dilutions at 4 fold were performed, the highest concentration is 800 μM. The serial diluted compound was added to the above plate at 1 μL per well, the highest final concentration in the experiment is 4 μM (200 fold dilution). TDF (tenofovir dipiroxil fumarate, Selleck, Cat S1400) has a highest concentration of 4 μM as a positive control. […] at a final concentration of 0.5%, TDF was added in to the positive control well at a final concentration of 1 μM.Detection of Viral Genomic DNA by qPCRPrimer: HBV-For-202, […]; HBV-Rev-315, […]. Copies of virus can be calculated using a standard curve plotted by using plasmid containing HBV genome and using SYBR Premix Ex Taq II Takara DRR081S kit and 1 μL cell culture supernatant as a template. EC50 values of the compound on viral replication were calculated by a four parametric nonlinear regression model using Graphpad Prism 5 software to manage concentration—viral copy number.
# Conditions: HepG2.2.15
smiles,measurement,value
COC[C@@H]1[C@H]2CN(c3ccc(C(C)(C)OC=O)cc3)C(=O)N2CCN1CC1=C(C(=O)OC)[C@H](c2ccc(F)cc2Cl)N=C(c2nccs2)N1,EC50,5 nM
